The values that follow come from US4535080A, “Derivatives of 2-piperazino-pyrimidine, methods for their preparation and their utilization as drugs or intermediates for drugs” (Pharmuka Laboratoires, priority 1981, dated 1985).

In assay [1] the test system is alpha-2 adrenergic receptors. To be noted: background statement; cited from earlier work.
In assay [2] the test system is alpha adrenergic receptors. To be noted: background statement; cited from earlier work.
Assay [3] concerns the target T1, receptor sites of clonidine (rat cortex membranes) (Rattus norvegicus, UniProt P22909).
T1 construct: measured on rat cortex membranes; from tissue; host or cells: rat cortex membranes
T1 sequence (P22909 1-465): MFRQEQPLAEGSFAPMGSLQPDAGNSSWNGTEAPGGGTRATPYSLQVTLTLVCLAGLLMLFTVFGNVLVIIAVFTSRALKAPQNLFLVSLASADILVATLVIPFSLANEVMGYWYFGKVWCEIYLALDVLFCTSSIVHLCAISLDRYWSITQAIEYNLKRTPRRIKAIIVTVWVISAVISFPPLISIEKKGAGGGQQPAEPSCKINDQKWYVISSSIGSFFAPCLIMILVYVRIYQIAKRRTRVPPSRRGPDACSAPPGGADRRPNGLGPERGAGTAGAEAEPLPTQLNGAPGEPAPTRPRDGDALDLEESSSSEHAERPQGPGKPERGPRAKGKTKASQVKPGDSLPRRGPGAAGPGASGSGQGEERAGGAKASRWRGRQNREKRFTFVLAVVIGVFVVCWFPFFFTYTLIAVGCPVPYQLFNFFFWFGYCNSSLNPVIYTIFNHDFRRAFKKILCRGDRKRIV
The assay is described as follows: Affinity for the receptor sites of clonidine (3H clonidine binding, rat cortex membranes).

Read-outs that look alike come from different tables or passages of the source.

Consider `Clc1cccc(Cl)c1N=C1NCCN1` [Clonidine, clonidine], for which the “affinity for alpha-2 receptors” value in assay [1] is on record as “strong affinity”. Moreover, the “behaviour towards alpha adrenergic receptors” value in assay [2] is reported as “behaves as an agonist towards alpha adrenergic receptors”.

The term Ki denotes a measure of affinity in units of concentration, obtained from inhibition or displacement. For `CN1CCN(c2nc(N)c(Cl)c(Cl)n2)CC1` [Example 8, 2-N-methylpiperazino-4-amino-5,6-dichloropyrimidine], in assay [3], the Ki amounted to 51 nM.

For the molecule `CNc1nc(N2CCN(C)CC2)nc(Cl)c1Cl` [Example 9, 2-N-methylpiperazino-4-methylamino-5,6-dichloro-pyrimidine], the affinity in assay [3], expressed as Ki, was 44 nM.

Molecule `CC(C)Nc1nc(N2CCN(C)CC2)nc(Cl)c1Cl` [Example 10, 2-N-methylpiperazino-4-isopropylamino-5,6-dichloropyrimidine] displayed a Ki in assay [3] of 5 nM.

On to `COc1c(Cl)nc(N2CCN(C)CC2)nc1NC(C)C` [Example 12, 2-N-methylpiperazino-4-isopropylamino-5-methoxy-6-chloropyrimidine], for which the Ki in assay [3] (read-out: Ki) was found to be 51 nM.

For `Cc1c(Cl)nc(N2CCN(C)CC2)nc1NC(C)C` [Example 21, 2-N-methylpiperazino-4-isopropylamino-5-methyl-6-chloropyrimidine], in assay [3], the Ki was found to be 16 nM.

For `CCc1c(Cl)nc(N2CCN(C)CC2)nc1NC(C)C` [Example 25, 2-N-methylpiperazino-4-isopropylamino-5-ethyl-6-chloropyrimidine], the inhibitory constant (Ki) in assay [3] (read-out: Ki) came to 51 nM.
